{
  "source": "patent US20070292488A1",
  "about": "“METHOD FOR TREATMENT OF WOUND TREATMENT USING AGANOCIDES” (priority 2006, published 2007)",
  "key": {"test bacteria": {"test_system": "test bacteria", "experiment": "Comparison of hypochlorous acid with Dakin's solution (antimicrobial activity, therapeutic index, time kill)", "settings": "in the regimen described", "excerpt": "“Time kill” refers to an in vitro measure of how fast a given antimicrobial can kill test bacteria.\nThis means that the time to wound closure may be reduced using hypochlorous acid."}, "[1]": {"test_system": "human secondary intention wound", "experiment": "Vacuum-assisted wound treatment combined with intermittent instillation of aganocide (HOCl) on a human wound", "type": "in vivo", "settings": "0.45% NaCl, pH about 4", "procedure": "A human secondary intention wound approximately 3-4 cm in diameter is fitted with a polyurethane sponge, pore size 400-600 microns cut to the size of the wound and twice the thickness of the wound and covered with an adhesive film, per instructions on the vacuum system. The outlet is connected to an IV bag (500 ml) with 0.01% HOCl, 0.45% NaCl, and pH of about 4 and is elevated to between 0.1 and 1 meter above the wound. A 1-cm hole is punctured in the adhesive film, and a second adhesive film is used to cover the hole, with the second outlet connected to the vacuum pump.\nEach cycle consists of three phases: a 2-hour pumping phase when the vacuum (125 mm Hg negative pressure) is connected and the IV bag is disconnected; […] and the IV bag is connected and the aganocide is applied to the wound; […] IV bag are disconnected.\nEach treatment has about 24 cycles and starts with a pumping phase and proceeds for 48 hours. When the treatment is completed, the dressings are changed and the treatment is repeated until full granulation has been promoted and the granulation tissue is within the level of the skin, approximately 30 to 100 days, depending on the depth of the original wound. […]"}},
  "data": [
    {"molecule": "OCl", "note": "[hypochlorous acid]", "values": [
      {"measurement": "antimicrobial activity in comparison with Dakin's solution", "setting": "test bacteria", "value": "improved"},
      {"measurement": "therapeutic index in comparison with Dakin's solution", "setting": "test bacteria", "value": "improved"},
      {"measurement": "time kill in comparison with Dakin's solution", "setting": "test bacteria", "value": "improved"},
      {"measurement": "wound healing results of combination regimen compared with vacuum alone or aganocide alone", "setting": "[1]; Example 1: 0.01% HOCl, 1 second instilling, 15 second holding", "value": "superior"},
      {"measurement": "wound healing results of combination regimen compared with vacuum alone or aganocide alone", "setting": "[1]; Example 2: 0.01% HOCl, 5 second instilling, 5 minute holding", "value": "superior"}
    ]}
  ]
}
